Measurements as given in patent US7175872B2, “Pyridinium-Betain compounds for use as taste modulators” (Nestec S.A., priority 2002, dated 2007).
Where a name gives a salt, the structure may show the parent alone.

Legend:
Format in all cases: in vivo
umami taste of MSG = test: Iso-intensity: relative umami taste of MSG/Alapyridaine mixtures; conditions: 1.5 mmol/kg MSG and 6.0 mmol/kg Alapyridaine vs 1.5 mmol/kg MSG
Procedure: • Sensory panel training: […] Sensory analyses were performed in a sensory panel room at 22-25° C. on three different sessions. • Taste thresholds: The taste thresholds of the tastants or mixtures containing basic tastants plus Pyridinium-Betains were determined in a triangle test using Evian® mineral water as the solvent at a defined pH ([…] and H.-D. Belitz, Z. Lebensm. Unters. Forsch. 1975, 159, 65-72). The samples (3 mL) were presented in order of increasing concentrations (serial 1:1 dilutions). The threshold values evaluated in two different sessions were averaged. […] The taste intensities of aqueous (Evian®) solutions containing a basic tastant, such as glucose and MSG, for example, in constant concentrations and the compounds of the general formula (A), for example […], in various concentrations were compared with those of a solution containing the basic tastant only. […] The relative taste strength (taste enhancing factor) of a mixture containing the basic […] was related to the basic tastants glucose, MSG, or other tastants, respectively, as standard substances, and was determined as the ratio of the concentrations c of iso-intensely tasting solutions of the basic tastant, such as glucose (glc), and the mixture containing tastant plus Pyridinium-Betain, […])=[…] […]

salty taste of NaCl = test: Salt-intensity ranking of NaCl/Pyridinium-Betaine mixtures by sensory panel; conditions: 20 mmol/L each, pH 7.0; scale 0 (not salty) to 5 (very salty), reference NaCl-solution ranked as 1
Excerpt: The salt-intensities of various NaCl/Pyridinium-Betaine mixtures (20 mmol/L each) were compared to a 20 mmol/L NaCl standard solution. The sensory panel was asked to rank the salt-intensities of these solutions on a scale from 0 (not salty) to 5 (very salty), while the reference NaCl-solution was ranked as 1. As listed in Table 6, the most intense salty taste was found in the solution containing NaCl and Alapyridaine, as well as in the triple mixture with L-arginine. A slight impact was found for Argpyridaine and L-arginine.

sweet taste of glucose = test: Sweet taste detection threshold of glucose/Pyridinium-Betaine mixtures (triangle test, sensory panel); conditions: equimolar mixture with glucose; for Threshold decrease: vs glucose in water 50.0 mmol/L
Procedure: • Sensory panel training: […] Sensory analyses were performed in a sensory panel room at 22-25° C. on three different sessions. • Taste thresholds: The taste thresholds of the tastants or mixtures containing basic tastants plus Pyridinium-Betains were determined in a triangle test using Evian® mineral water as the solvent at a defined pH ([…] and H.-D. Belitz, Z. Lebensm. Unters. Forsch. 1975, 159, 65-72). The samples (3 mL) were presented in order of increasing concentrations (serial 1:1 dilutions). The threshold values evaluated in two different sessions were averaged. […] The taste intensities of aqueous (Evian®) solutions containing a basic tastant, such as glucose and MSG, for example, in constant concentrations and the compounds of the general formula (A), for example […], in various concentrations were compared with those of a solution containing the basic tastant only. To achieve this, triangle tests were performed with two glass vials containing the basic tastant in constant concentrations, and one glass vial containing a stepwise 1:1-diluted mixture of basic […]. […] The relative taste strength (taste enhancing factor) of a mixture containing the basic […] was related to the basic tastants glucose, MSG, or other tastants, respectively, as standard substances, and was determined as the ratio of the concentrations c of iso-intensely tasting solutions of the basic tastant, such as glucose (glc), and the mixture containing tastant plus Pyridinium-Betain, […])=[…] This taste enhancing effect is illustrated in examples. The sweet taste thresholds of equimolar mixtures of sweet tasting compounds and various Pyridinium-Betaines were determined by a triangle test using EVIAN® mineral water as the solvent. The sensorial evaluations were performed at different pH values. The equimolar mixture of […] and sucrose at pH 7.0 was evaluated with a 4-fold lower sweet threshold concentration than pure sucrose (Table 1). […] is able to reduce the sweet threshold of glucose 16-fold at pH 7.0 and pH 9.0, whereas at pH 5.0 a gain the sweet taste perception […] (Table 2). […] Using the dipeptide derivative (S)-[…] as a taste-enhancer leads to a 16-fold threshold reduction compared to glucose.

sweet taste of L-alanine = test: Sweet taste detection threshold of L-alanine/Pyridinium-Betaine mixtures (triangle test, sensory panel); conditions: mixture with L-alanine; for Threshold decrease: vs L-alanine in water 12.5 mmol/L
Procedure: • Sensory panel training: […] Sensory analyses were performed in a sensory panel room at 22-25° C. on three different sessions. • Taste thresholds: The taste thresholds of the tastants or mixtures containing basic tastants plus Pyridinium-Betains were determined in a triangle test using Evian® mineral water as the solvent at a defined pH ([…] and H.-D. Belitz, Z. Lebensm. Unters. Forsch. 1975, 159, 65-72). The samples (3 mL) were presented in order of increasing concentrations (serial 1:1 dilutions). The threshold values evaluated in two different sessions were averaged. […] The taste intensities of aqueous (Evian®) solutions containing a basic tastant, such as glucose and MSG, for example, in constant concentrations and the compounds of the general formula (A), for example […], in various concentrations were compared with those of a solution containing the basic tastant only. To achieve this, triangle tests were performed with two glass vials containing the basic tastant in constant concentrations, and one glass vial containing a stepwise 1:1-diluted mixture of basic […]. […] The relative taste strength (taste enhancing factor) of a mixture containing the basic […] was related to the basic tastants glucose, MSG, or other tastants, respectively, as standard substances, and was determined as the ratio of the concentrations c of iso-intensely tasting solutions of the basic tastant, such as glucose (glc), and the mixture containing tastant plus Pyridinium-Betain, […])=[…] […] This taste enhancing effect is illustrated in examples. Besides the two carbohydrates, the sweet amino acid L-alanine was also tested with […]. Again, the best impact on sweet taste perception was found for the mixture at pH 9.0, resulting in an 8-fold lower threshold.

## CC(C(=O)[O-])[n+]1cc(O)ccc1CO (stereo not drawn) [Alapyridaine, N-(1-carboxyethyl)-3-hydroxy-6-hydroxymethyl-pyridinium inner salt]
Umami taste of MSG
  maximum umami-taste intensity (iso-intensity): 4 -fold
Salty taste of NaCl
  Salt-intensity: 0.0
Sweet taste of glucose; pH 5.0
  Sweet detection threshold: 6.0 mmol/kg water
  Taste quality: sweet/
  Threshold decrease: 8.0
Sweet taste of glucose; pH 7.0
  Sweet detection threshold: 3.0 mmol/kg water
  Taste quality: sweet
  Threshold decrease: 16
Sweet taste of glucose; pH 9.0
  Sweet detection threshold: 3.0 mmol/kg water
  Taste quality: sweet
  Threshold decrease: 16
Sweet taste of L-alanine; pH 5.0
  reduction of the sweet threshold: only a slight reduction
Sweet taste of L-alanine; pH 6.0
  Sweet detection threshold: 6.0 mmol/kg water
  Taste quality: sweet
  Threshold decrease: 2.0
Sweet taste of L-alanine; pH 7.0
  Sweet detection threshold: 3.0 mmol/kg water
  Taste quality: sweet
  Threshold decrease: 4
Sweet taste of L-alanine; pH 9.0
  Sweet detection threshold: 1.5 mmol/kg water
  Taste quality: sweet
  Threshold decrease: 8
